In patent US20250361214A1, “TRIAZINE LIPIDS, LIPID SYNTHESIS, AND METHODS FOR INHIBITING CANONICAL NFKB TRANSCRIPTIONAL ACTIVITY” (University of Kentucky Research Foundation, priority 2022, published 2025):
“Also recorded” adds a separate entry of the source.

Experiments:
[1] = Nanoparticle pKa via TNS fluorescence; type: physicochemical; conditions: liposomes of the cationic lipid in buffer, probe 2-(p-toluidino)-6-napthalene sulfonic acid (TNS), 1 µM final, pH 2.5 to 12, read-out: pKa
Procedure: Determination of Nanoparticle pKa via TNS Fluorescence. […] The solutions were mixed by pipetting and incubated at room temperature for 10 minutes, before being analysed for fluorescence intensity using a 321 nm excitation and 445 nm emission wavelengths.

[2] = Differential scanning calorimetry, transition temperature (Tm) of lipids; type: physicochemical; conditions: liposomes of pure lipid, 10 mM in 20 mM HEPES, DSC
Procedure: Differential Scanning calorimetery. The transition temperature (Tm) of the lipids was determined using a multicell differential scanning calorimeter (TA Instruments). Liposomes were made with triazine lipids at a concentration of 10 mM in 20 mM HEPES buffer. These were heated to 60° C. and sonicated until the solution was translucent. For Tm determination, 250 μL of the liposome solution was transferred into reusable hastelloy ampoules while 250 μL of the HEPES solution was transferred to the third ampoule, leaving the reference ampoule empty. […] Data was collected over a range of 10-110° C. at a rate of 2° C. min-1 in a heat-cool-heat cycle. After the run was complete, the CpCalc 2.1 software package was used to convert the raw data into a molar heat capacity and the data from the second heating cycle were processed using Microsoft Excel.

[3] = Characterization of nanoparticles (size, zeta potential, DNA encapsulation), Example 2; type: physicochemical; conditions: LNPs made with the cationic lipid
Procedure: The concentration of DNA in LNPs after dialysis was quantified using an AccuClear® Ultra High Sensitivity dsDNA Quantification Kit (Biotium #31027) and quantified on a BioTek Synergy H1 plate reader. Encapsulation efficiencies were determined by comparing the amount of DNA in the LNP solution vs. the DNA solution used to make them, after disrupting the LNPs with 0.5% Cl2E10 (Abcam #ab146563) and adjusting for volume differences (i.e.: excess volume added during dialysis and dilution volume during ethanol mixture).

in vitro = type: cell-based; conditions: female, C57BL/6J, mouse
Procedure: Cell Culture of Bone Marrow-Derived Macrophages. […] After 7 days, the cells were transferred to tissue culture 96 well plates (Corning) at a density of 100,000 in 20 μL of medium and allowed to settle overnight for subsequent assays.
Lactate Dehydrogenase Release (LDH) Toxicity Assay. For determination of cytotoxicity, mature bone marrow-derived macrophages (BMDM) were treated with 20 μL of the lipids (concentrations denoted in figure legend) diluted in 20 mM HEPES buffer, with HEPES buffer as negative control and 10% Triton X-100 as positive control. After 24 hours, the 96 well plates were centrifuged at 200×g for 5 minutes to remove debris and 100 μL of media was transferred to an untreated flat-bottom 96 well plate. Next, 100 μL of LDH reaction reagent purchased from Cayman Chemical (Ann Arbor, MI) was added to each and allowed to sit for 30 minutes at 37° C. Absorbance at 490 and 680 nm were measured using a BioTek Synergy H1 plate reader and the data were processed using Microsoft Excel. Mean values from triplicates are shown for one of two independent experiments.

canonical NFKB = assay: THP-1-Blue NFKB reporter (SEAP) assay; type: cell-based, human
BALB/c mice [4] = assay: Anti-hAAT antibody titers and IgG subclass ratios; type: in vivo, mouse
Procedure: To assess the presence of antibodies toward hAAT, 50 μL of hAAT (OriGene #RG202082) was plated at 2 μg/mL in carbonate buffer, pH 9.7, on a 96 well high binding plate (Greiner #82050-720) and incubated overnight at 4° C. The next day, the plates were washed with PBS containing 0.1% Tween-20 (PBS-T) and blocked for 1 hour with PBS-C at 37° C. After blocking, serum samples were plated at dilutions ranging from 1:100 to 1:1,000,000 and incubated at 37° C. for 2 hours. Secondary antibody (goat anti-mouse IgG HRP; Invitrogen #16066) diluted 1:2000 was applied for 30 min at 37° C., followed by a 30 min. incubation with tetramethylbenzidine (Rockland). Absorbance at 450 nm was recorded using a BioTek Synergy H1 microplate reader. Reciprocal endpoint titers were determined by plotting A450 values versus known dilutions, calculating the slope of that line, and dividing the slope by two times the average of the blank (no serum) wells.
Anti-hAAT IgG subclass ratios were assessed as described above, using a single 1:100 sample dilution and the following detection antibodies: goat anti-mouse IgG1-HRP (Abcam ab98693) at 1:10,000, IgG2a-HRP (Abcam ab98698) at 1:5000, IgG2b-HRP (Abcam ab98703) at 1:10,000 and IgG3 (Jackson 115-035-209) at 1:5000. Subclass ratios were calculated by dividing the absorbance of each subclass by that of IgG1 for each individual mouse.

J774 murine macrophages = assay: CD80 expression on macrophages treated with lipid; type: cell-based; conditions: 16 hours
Description: Increased expression of CD80 after TZ3 treatment aligns with data observed for DOTAP,^109 and supports the hypothesis that cationic lipids activate the non-canonical NFKB pathway leading to enhanced antigen presentation and co-stimulatory molecule expression.

[5] = Size and charge determination of nanoparticles (Zetasizer Nano ZS), Example 1; type: physicochemical
Description: Size and Charge Determination.

C57BL/6J mice = assay: In vivo toxicity of cationic lipid nanoparticles (ALT, IL-6, SCr, mortality)
BALB/c mice [6] = assay: In vivo hAAT transfection efficiency, serum ELISA and ALT; design: species or system mouse
Procedure: To assess in vivo hAAT transfection efficiency, mice were administered 200 μL nanoparticles or PBS vehicle i.p. at the doses indicated in the figure legend. Seventy-two hours after injection the mice were bled again for assessment of ALT levels and hAAT expression. hAAT levels were determined via ELISA using serum diluted 1:1 in PBS containing 0.05% casein (PBS-C; 124250; Beantown Chemical), as described previously.^38

[7] = 20 mM lipid, i.p., versus baseline

Compound: CCCCCCCCCCCCN(CCCCCCCCCCCC)c1nc(NCCCN)nc(NCCCN)n1 [Lipid 3]
- pKa [1]: 7.37
- Tm [2]: < 10 °C
- encapsulation of DNA (general) [3]: 60-70%
- IC50 at 24 h (in vitro): 111 µM
- IC50 (canonical NFKB; Homo sapiens, THP-1-Blue cells stimulated with TNFα, 24 h lipid treatment, read-out: IC50, canonical NFKB inhibition): 4 µM
- IC80 (canonical NFKB; Homo sapiens, canonical NFKB inhibition): 10 µM
- canonical NFKB inhibition (canonical NFKB; THP-1-Blue cells stimulated with TNFα, listed as TZ3): dose dependent, but not affected by duration of exposure; also recorded: dose dependent inhibition of the canonical NFKB pathway
- increase in anti-hAAT titers versus the two control lipids (BALB/c mice [4]; 25 μg hAAT protein concurrent with 1 mM lipid, day 14): 1000 fold
- increase in antibody titer toward a model antigen (BALB/c mice [4]; absence of additional adjuvants (FIG. 60)): greater than 3 orders of magnitude
- ratios of IgG2a, 2b and 3 to IgG1 (BALB/c mice [4]; hAAT protein delivered with lipids): more balanced IgG2a/IgG1 ratio than DOTAP and DMPC
- antibody response relative to DOTAP (BALB/c mice [4]; hAAT protein delivery): two orders of magnitude greater than DOTAP
- RET (anti-hAAT) (BALB/c mice [4]; lipid used to deliver the hAAT protein): > 100,000
- anti-hAAT IgG titers (BALB/c mice [4]; transgene delivery, 10 μg hAAT DNA, day 14, versus untreated mice): significantly higher anti-hAAT titers than untreated mice
- Th1/Th2 response (ratios of IgG2a, 2b, and 3 over IgG1) (BALB/c mice [4]; transgenic hAAT delivery with LPs): balanced Th1/Th2 response
- CD80 expression (J774 murine macrophages; MFI relative to untreated cells, listed as TZ3): does-dependent increase in mean fluorescence intensity (MFI) of CD80; also recorded: dose-dependent increase in expression of the co-stimulatory molecule, CD80
- cell viability (ZombieDye live/dead stain) (J774 murine macrophages; across lipid concentrations): cells are viable across lipid concentrations
- PDI ([5]; nanoparticles of pure lipid (Table 1)): 0.41 ± 0.02
- Size ([5]; nanoparticles of pure lipid, 1 mM, 25° C. (Table 1)): 130 ± 2 nm
- Charge ([5]; zeta potential, nanoparticles of pure lipid (Table 1)): 52 ± 3 mV
- interleukin 6 (IL-6) (C57BL/6J mice; [7]): trended upward
- serum alanine aminotransferase (ALT) (C57BL/6J mice; [7]): trended upward
- in vivo toxicity (overall) (C57BL/6J mice; 100 μL cationic lipid nanoparticles i.p., listed as TZ3): comparable toxicity to DOTAP; also recorded: does not induce significant in vivo toxicity
- hAAT levels at 4 weeks (BALB/c mice [6]; LP transfection, 4 weeks after treatment): persisted at 4 weeks after treatment
- average hAAT levels in serum (BALB/c mice [6]; LPs (50% cationic lipid, 50% DOPE), 10,000 ng hAAT plasmid DNA i.p., 72 hours): 9.5 ng/mL
